Assay: Dissociation of 1 carboxy N—N—N trimethylmethanaminium benzoate in buffer solutions
Type: physicochemical
Experimental: Sample Preparation: 750 mg sample was dissolved in 250 mL of respective buffer solution and kept in orbital shaker at 37° C. for 30 minutes, 1 hour and 2 hours in separate flask. […]

[1] = pH 1.2 (0.1N HCl), 1 Hours, 37° C.
[2] = pH 1.2 (0.1N HCl), 2 Hours, 37° C.
[3] = pH 1.2 (0.1N HCl), 30 Minutes, 37° C.
[4] = pH 1.2 (0.1N HCl), Initial, 750 mg in 250 mL, 37° C.
[5] = pH 6.8 (Phosphate Buffer), 1 Hours, 37° C.
[6] = pH 6.8 (Phosphate Buffer), 2 Hours, 37° C.
[7] = pH 6.8 (Phosphate Buffer), 30 Minutes, 37° C.
[8] = pH 6.8 (Phosphate Buffer), Initial
[9] = pH 6.8 (Phosphate Buffer), Initial, 750 mg in 250 mL, 37° C.

Question: Which Dissociation (1.2 pH) does the source give for `C[N+](C)(C)CC(=O)O.O=C([O-])c1ccccc1` [1-carboxy-N—N—N-trimethylmethanaminium benzoate] here?
Answer: completely dissociated

Question: And the Dissociation (6.8 pH)?
Answer: completely dissociated

Question: And the “Concentration in %: 1 carboxy N-N-N trimethylmethanaminium, %” value (Control)?
Answer: 70%

Question: What about the “Concentration in %: Benzoic acid, %” value (Control) of the same molecule?
Answer: 36%

Question: And the “%, Dissociation of 1 carboxy N-N-N trimethylmethanaminium” value [1]?
Answer: 100%

Question: And the “%, Dissociation of Benzoic acid” value [1]?
Answer: 115%

Question: And the “Concentration in %: 1 carboxy N-N-N trimethylmethanaminium, %” value [1]?
Answer: 69%

Question: What about the “Concentration in %: Benzoic acid, %” value [1] of the same molecule?
Answer: 41%

Question: What about the “%, Dissociation of 1 carboxy N-N-N trimethylmethanaminium” value [2] of the same molecule?
Answer: 100%

Question: What about the “%, Dissociation of Benzoic acid” value [2] of the same molecule?
Answer: 114%

Question: What about the “Concentration in %: 1 carboxy N-N-N trimethylmethanaminium, %” value [2] of the same molecule?
Answer: 70%

Question: And the “Concentration in %: Benzoic acid, %” value [2]?
Answer: 41%

Question: What about the “%, Dissociation of 1 carboxy N-N-N trimethylmethanaminium” value [3] of the same molecule?
Answer: 98%

Question: And the “%, Dissociation of Benzoic acid” value [3]?
Answer: 115%

Question: What about the “Concentration in %: 1 carboxy N-N-N trimethylmethanaminium, %” value [3] of the same molecule?
Answer: 68%

Question: And the “Concentration in %: Benzoic acid, %” value [3]?
Answer: 41%

Question: And the “%, Dissociation of 1 carboxy N-N-N trimethylmethanaminium” value (pH 1.2 (0.1N HCl), Initial)?
Answer: 97%

Question: And the “%, Dissociation of Benzoic acid” value (pH 1.2 (0.1N HCl), Initial)?
Answer: 94%

Question: And the “Concentration in %: 1 carboxy N-N-N trimethylmethanaminium, %” value [4]?
Answer: 67%

Question: What about the “Concentration in %: Benzoic acid, %” value [4] of the same molecule?
Answer: 34%

Question: What about the “%, Dissociation of 1 carboxy N-N-N trimethylmethanaminium” value [5] of the same molecule?
Answer: 97%

Question: And the “%, Dissociation of Benzoic acid” value [5]?
Answer: 109%

Question: What about the “Concentration in %: 1 carboxy N-N-N trimethylmethanaminium, %” value [5] of the same molecule?
Answer: 70%

Question: And the “Concentration in %: Benzoic acid, %” value [5]?
Answer: 40%

Question: What about the “%, Dissociation of 1 carboxy N-N-N trimethylmethanaminium” value [6] of the same molecule?
Answer: 99%

Question: And the “%, Dissociation of Benzoic acid” value [6]?
Answer: 108%

Question: What about the “Concentration in %: 1 carboxy N-N-N trimethylmethanaminium, %” value [6] of the same molecule?
Answer: 71%

Question: What about the “Concentration in %: Benzoic acid, %” value [6] of the same molecule?
Answer: 40%

Question: What about the “%, Dissociation of 1 carboxy N-N-N trimethylmethanaminium” value [7] of the same molecule?
Answer: 98%

Question: And the “%, Dissociation of Benzoic acid” value [7]?
Answer: 109%

Question: And the “Concentration in %: 1 carboxy N-N-N trimethylmethanaminium, %” value [7]?
Answer: 71%

Question: And the “Concentration in %: Benzoic acid, %” value [7]?
Answer: 40%

Question: And the “%, Dissociation of 1 carboxy N-N-N trimethylmethanaminium” value [8]?
Answer: 96%

Question: And the “%, Dissociation of Benzoic acid” value [8]?
Answer: 97%

Question: What about the “Concentration in %: 1 carboxy N-N-N trimethylmethanaminium, %” value [9] of the same molecule?
Answer: 69%

Question: What about the “Concentration in %: Benzoic acid, %” value [9] of the same molecule?
Answer: 36%

Source: US20260216116A1, “QUATERNARY AMMONIUM COMPOUNDS (QACS) AND PROCESS FOR PREPARATION THEREOF” (priority 2023, published 2026)
